Data set [1] is described as follows: In vivo toxicity study in naive CD1 mice, single intravenous dose. Conditions: i.v., mTNFalpha 470 μg/kg equimolar to 650 μg/kg 64177. The method, then:
Two groups of 3 male and 3 female mice for each treatment dose were recruited. One group of 3 male and 3 female mice for each treatment dose was sacrificed 24 h after the intravenous administration to obtain information on acute TNFalpha mediated effects. […] Parameters that were analyzed are: clinical signs (local tolerance, systemic tolerance, mortality, behavior, external appearance, faeces), body weight, body temperature, food consumption, hematology, clinical chemistry, macroscopic post mortem findings, organ weights and histopathology of dedicated organs.

Data set [2] has as its system NHDF cells. As to the kind of experiment: Binding (staining) on vital NHDF cells. Conditions: NHDF cells (low ED-B), up to 10 nM. The class given is cell-based, human. Here is the method:
(§1) ED-B is expressed in tumors and the matrix on embryonic cells. The binding of the cancer target-binding protein fused to scTNFalpha to the matrix of cell culture cells was compared to the binding of the control and non-targeting domain protein fused to scTNFalpha (64179). Different cell culture cells were analyzed, including normal human fetal lung fibroblast cells having high expression levels of ED-B (Wi38 cells), and normal human dermal fibroblasts having low level of ED-B (NHDF). To analyze the in vitro binding, 64177, 83563, 83564 and 64179 were investigated on vital Wi38 cells.
(§2) Fusion proteins (single concentration of 1, 5 and 10 nM) or control protein 64179 (1, 5 and 10 nM) were incubated (1 h, 37° C.) with Wi38 and NHDF cells (60,000 cells/ml; from ATCC), followed by fixation with methanol, blocking (5% Horse serum/PBS); incubation with an anti-TNFalpha-antibody (Peprotech 500-P64, 1:500) and additionally with a secondary Alexa488 conjugated antibody (obtained from Invitrogen A11008, 1:1000). The nuclei were stained with DAPI.

Data set [3] has as its system L929 cells. Description: L929 apoptosis (cytotoxicity) assay of TNFalpha activity. Conditions: actinomycin D sensitized cells, 24 h. The data set is classed as cell-based. An excerpt:
The physiological TNFalpha-activity of an Affilin-scTNF-fusion protein has been determined using the L929 apoptosis assay (Flick et al., 1984 J. Immunol. Methods. 68:167-175). In this assay, the effector part of the fusion protein (scTNFalpha, three soluble TNFalpha monomers connected via peptide linkers) efficiently stimulates cell death in actinomycin D sensitized cells at EC50 values in the picomolar range.
Cells were resuspended in suitable medium containing FBS and antibiotics. A cell suspension of a density of 3.5×10^5 cells/ml in medium containing 2% FCS was seeded into the wells of a 96 well standard cell culture plate. After incubation, the culture medium was removed and medium containing 4% FBS, Actinomycin D and antibiotics was added to each well. […] After a further incubation of 24 h, the metabolic activity as a measure of cell survival was determined using WST-1 reagent (Roche). […] The quantitative evaluation is based on the relative potency against a mTNFalpha-standard.
In this embodiment, an L929 assay was used as activity assay versus mouse TNFalpha as internal standard (mTNFalpha in the figure). […] Potency has been determined in several independent assays and is determined by parallel line method with PLA2.0 software relative to the internal control mTNFalpha. […]

Data set [4] relates to F9-tumor tissue. As to the kind of experiment: Binding on F9 teratocarcinoma tumor slices. Details: species or system mouse. Here is the method:
ED-B accumulates around neovascular structures, like tumor blood vessels (Tarli et al., 1999, Blood 94: 192-198). Different concentrations of fusion proteins were compared with respect to ED-B target binding on F9 teratocarcinoma slides. Slices of a thickness of 6 μm were fixed with ice cold absolute acetone. After blocking with 5% horse serum, slices were incubated with 1, 5 and 10 nM of fusion proteins 64177, 83563, 83564 and the non-ED-B targeted protein 64179, respectively. Fusion proteins were probed by anti-TNFalpha-antibody (Peprotech 500-P64, 1:500) and additional with a secondary Alexa488 conjugated antibody (Invitrogen, A11008, 1:1000). CD31 (PECAM-1) is a widely used endothelial cell marker. Therefore, vessels were stained by use of an anti-mouse CD31-antibody (10 μg/ml; Abcam, ab56299) and an Alexa594-conjugated secondary antibody.

For data set [5], the system named is MDA-MB 231 tumor. As to the kind of experiment: In vivo efficacy study in breast cancer (MDA-MB 231) tumor bearing mice, combination with Lipodox. Details: species or system mouse. The text has this:
The efficacy study is intended to analyze the effect of targeted fusion protein 83564 combined with a chemotherapeutic on the tumor size in a breast cancer model. As model system for the in vivo efficacy study, the breast cancer cell line MDA-MB 231 (ATCC® HTB-26™; patient derived model, obtained from ATCC) was used. Cells were implanted subcutaneously in the left flank of female immunodeficient NMRI nu/nu mice from Harlan. For this study, Lipodox was used as exemplary cytotoxic drug; any other cytotoxic agents could be used instead. The chemotherapeutic Lipodox from Sun Pharma Global FZE is composed of doxorubicin hydrochloride encapsulated in long circulating pegylated liposomes. It is indicated as monotherapy for the treatment of metastatic breast cancer with increased cardiac risk.
In order to show the efficacy of Affilin-scTNFalpha-fusion protein 83564, mice carrying an MDA-MB 231 tumor with an initial size between 50 mm^3 and 200 mm^3 were intravenously treated with 75 μg/kg/day 83564 combined with Lipodox at a dose of 1.5 mg/kg/day (closed squares in FIG. 8). As control substance, 75 μg/kg/day 64179 (Affilin-scTNFalpha-fusion protein without targeting) combined with Lipodox at a dose of 1.5 mg/kg/day was injected intravenously into separate mice (closed circles in FIG. 8). […] During the whole efficacy study, the relative tumor volume was analyzed.

Data set [6] concerns Wi38 cells. As to the kind of experiment: Binding (staining) on vital Wi38 fibroblast cells. The data set is classed as cell-based, human. To be noted: Wi38 cells (high ED-B), up to 10 nM, anti-TNFalpha-antibody detection. The method, then: as §1, §2

Entries after “also recorded” stand apart in the source; their conditions may differ.

As to “mTNFalpha: murine recombinant TNFalpha used as internal standard and reference item [reference compound]”, the “incidence and/or severity of toxic effects, mTNFalpha- versus 64177-treated animals” value in data set [1] is “generally more pronounced”.

Turning to “64179: control fusion protein of a non-binding ubiquitin dimer (Ub2) and mouse scTNFalpha (SEQ ID NO: 16) [compound 64179, reference compound]”, the “staining on vital NHDF cells” value in data set [2] is “not detectable”. Besides, the “activity of the scTNFalpha part relative to mouse TNFalpha internal standard” value in data set [3] is given as “at least the same activity compared to the mouse TNFalpha”. Also, the “accumulation close to F9-tumor vessels (co-staining with anti-CD31)” value in data set [4] (1 nM fusion protein) was “no accumulation in F9-tumor vessels”. Moreover, the “binding on F9-tumor tissue slices” value in data set [4] (1 nM, 5 nM and 10 nM) is listed as “not detected”. The “relative tumor volume at day 28” value in data set [5] (75 μg/kg/day fusion protein i.v. combined with Lipodox 1.5 mg/kg/day) came out at 651 mm^3. The “effect on tumor growth compared with the other groups” value in data set [5] (fusion protein combined with Lipodox 1.5 mg/kg/day) is on record as “had the effect on growth of breast cancer as Lipodox alone”. Moreover, in data set [6], the “staining of ED-B on vital Wi38 cells” value is on record as “No unspecific staining; also recorded: not detectable”.
